# Data taken from patent US20120114636A1, “LOW MOLECULAR WEIGHT CYCLIN E (LMW-E) AS A BIOMARKER FOR PERSONALIZATION OF CANCER THERAPIES” (The Board of Regents of the University of Texas System, priority 2009, published 2012).
# “And” between values parts separate entries of the source, which are not always exact repeats. Identical values can stand only once.
# Experiments:
# Format in all cases: cell-based, human
# MCF-7/Ac1 cells [1] = assay: Cell growth by cell counting, AD-stimulated cells; details: 3 days
# Method: Cell growth. The effects of the aromatase inhibitors on MCF7/Ac1 cells growth were examined by counting the cells at the indicated time. The cells were detached from their flask using trypsin and counted using a Coulter counter machine.
# To examine the effects of the three different aromatase inhibitors on the proliferation of MCF-7/Ac1 cells, cells were cultured in estrogen deprived, charcoal stripped serum media (CSSM). The response of the cells to 25 nM of androstenedione (AD) alone or AD plus one of the 3 aromatase inhibitors letrozole (FIG. 22A), anastrozole (FIG. 22B), and exemestane (FIG. 22C) was measured after 3 days of treatment. Cells maintained in CSSM were used as controls.
# FIGS. 22A-22C show the effect of aromatase inhibitor treatment on proliferative response and cell cycle distribution of MCF-7/Ac1 cells. Cells were cultured in IMEM with 10% charcoal-stripped serum medium (CSSM) without phenol red and with 600 μg/ml of G418 for 4 days before plating. Cells (100,000) were seeded in 100 mm dishes and, 24 hrs later, were exposed for 3 days to the specific treatment. […] CSSM, untreated cells cultured in charcoal-stripped serum medium without phenol red and with 600 μg/ml of G418.
# MCF-7/Ac1 cells [2] = assay: Cell cycle analysis by flow cytometry (PI)
# Method: Cell cycle analysis. MCF-7/Ac1 cells were cultured in estrogen-deprived media with or without 25 nM 4-androstenedione, and treated with different concentrations of aromatase inhibitors. Untreated and drug treated cells were collected 72 hours later for flow cytometry and lysates were prepared for western blot and kinase assays.
# Flow cytometry analysis. Cells were pelleted and resuspended in 1.5 ml of PBS, then fixed in 3.5 ml of 95% ethanol overnight at −20° C. After being washed, the pellets were resuspended in a solution of PBS containing 10 μg/ml propidium iodide, 20 μg/ml RNase A, 0.5% Tween 20, and 0.5% BSA and incubated at 37° C. for 30 min. The profiles of cells in the G0-G1, S, and G2-M phases of the cell cycle were analyzed at the M. D. Anderson Cancer Center Cytometry Core Facility on a FACS Caliber machine equipped with Cellquest or ModFit software.
# FIGS. 22A-22C show the effect of aromatase inhibitor treatment on proliferative response and cell cycle distribution of MCF-7/Ac1 cells. Cells were cultured in IMEM with 10% charcoal-stripped serum medium (CSSM) without phenol red and with 600 μg/ml of G418 for 4 days before plating. Cells (100,000) were seeded in 100 mm dishes and, 24 hrs later, were exposed for 3 days to the specific treatment. […] Cell growth is expressed as the percentage of the cells compared with the control cells (25 nM AD treated cells, 575,000 cells at day 3). Columns, mean of two to three experiments, each in triplicates; bars, S.D. *, P<0.05, when compared to cells only treated with 25 nM AD; n.s, not significant. CSSM, untreated cells cultured in charcoal-stripped serum medium without phenol red and with 600 μg/ml of G418.
# [3] = tested on: cyclin E-associated kinase activity in MCF-7/Ac1 cells; assay: Cyclin E-associated kinase assay (histone H1); details: 25 nM AD, 3 days
# Method: (§1) Immunoprecipitation and Immunoblotting. Two hundred fifty μg of cell extracts were used per immunoprecipitation with polyclonal antibody to cyclin E or polyclonal antibody to CDK2, coupled to protein A beads. After being washed, the immunoprecipitates were subjected to electrophoresis in 13% gels, transferred to Immobolin P, blocked, and incubated with the indicated antibodies as already described.
# (§2) MCF-7/Ac1 cells were treated with the indicated concentrations of letrozole and AD for 3 days. Cyclin E kinase assays were performed by immunoprecipitating equal amounts of cell lysate (250 μg) with monoclonal antibodies to cyclin E coupled to protein A beads, using histone H1 as substrate. […] The same cell lysates were subjected to western blot analysis (50 μg of protein) with the indicated antibodies. […] The same cell lysates were first immunoprecipitated with cyclin E followed by western blot for p21 and p27. […] The same cell lysates were first immunoprecipitated with CDK2 followed by western blot for p21 and p27. The levels of proteins were measured by densitometric scanning of the corresponding bands and normalized using actin values. The values indicated at the bottom were compared to the values obtained with untreated cells.
# MCF-7/Ac1 cells [4] = assay: Western blot of CDK2, phospho-CDK2, cyclin E, pRb; details: 25 nM AD
# Method: FIG. 28. Effect of increasing concentrations of letrozole in the presence of 25 nM AD on CDK2 kinase activity, activated CDK2 and Rb phosphorylation of MCF7/Ac1 human breast cancer cells. MCF-7/Ac1 cells were treated with the indicated concentrations of letrozole and AD for 3 days. CDK2 kinase assays were performed by immunoprecipitating equal amounts of cell lysate (250 μg) with monoclonal antibodies to CDK2 (D12, sc-6248) coupled to protein G beads, using histone H1 as substrate. […] The same cell lysates were subjected to western blot analysis (50 μg of protein) with the indicated antibodies.
# (§3) Western blot analysis. Cell lysates were prepared and subjected to western blot analysis as described previously (Akli et al., 2004). Briefly, 50 μg of protein were subjected to electrophoresis on SDS-PAGE and transferred to Immobilon P overnight at 4° C. at […] constant voltage. The blots were blocked overnight at 4° C. in BLOTTO [5% nonfat dried milk in 20 mM Tris, 137 mM NaCl, and 0.05% Tween (pH 7.6)]. After being washed, the blots were incubated in primary antibodies for 3 h. Primary antibodies used were cyclin E (HE-12; Santa Cruz Biotechnology), p21 (0P64; Oncogene Research Products, Boston, Mass.), p27 (K25020; BD Biosciences-Transduction Laboratories, Lexington, Ky.), cyclin-dependent kinase 2 (CDK2; Transduction Laboratories), and actin (Chemicon International, Inc., Temecula, Calif.). Blots were then incubated with goat anti-mouse or anti-rabbit immunoglobulin-horseradish peroxidase conjugate at a dilution of 1:5000 in BLOTTO for 1 h and finally washed and developed by using the Renaissance chemiluminescence system as directed by the manufacturer (Perkin-Elmer Life Sciences, Inc., Boston, Mass.). Western blots were quantitated by densitometric analysis using IPLab Gel software (Scientific Image Processing, Vienna, Va.). Densitometric values of actin were used to standardize for equal protein loading. These values were introduced into the software Graph-Pad Prism version 4.0 (GraphPad Software, Inc., San Diego, Calif.) for statistical analysis.
# as §2
# [5] = tested on: cyclin E and CDK2 complexes in MCF-7/Ac1 cells; assay: Immunoprecipitation of cyclin E or CDK2 followed by western blot for p21 and p27; details: 25 nM AD
# Method: as §1, §2
# [6] = tested on: CDK2 protein in MCF-7/Ac1 cells; assay: Western blot of CDK2 protein levels in adenovirus-infected cells; details: 25 nM AD, uninfected and LacZ infected cells
# Method: as §3
# MCF-7/Ac1 cells were cultured in IMEM with 10% charcoal-stripped serum medium (CSSM) without phenol red and with 600 μg/ml of G418 for 4 days before plating. […] Cells were then infected with the indicated adenoviruses (at 4000 m.o.i.) 24 hours before drug treatment.
# MCF-7/Ac1 cells [7] = assay: Sequential AD/letrozole then roscovitine treatment: cell number and CDK2 western blot; details: additional two days in medium or medium plus DMSO
# Method: Medium alone or medium plus DMSO were used as controls. A schematic of the treatment strategy is depicted in FIG. 25A. At the conclusion of the treatment, cells were enumerated and subjected to western blot analysis with CDK2 (total) and phospho-CDK2 antibodies.
# Cells were then infected with the indicated adenoviruses (at 4000 m.o.i.) 24 hours before drug treatment.
# BT474 cells = assay: High throughput clonogenic assay, trastuzumab and roscovitine; details: agents alone or in combination
# Method: (§4) FIGS. 27A-27B. […] FIG. 27B. […] Isobologram analysis and graphs were obtained using CalcuSyn software, which performs drug dose—effect calculation using the median effect method. Experiments were performed in triplicate and representative data are shown.
# SKBr3 cells = assay: as above; details: agents alone or in combination
# Method: as §4
# MCF-7/Ac1 cells [8] = assay: Cell number of adenovirus-infected cells (LacZ, cyclin EL, T1, T2); details: 20 uM, uninfected, LacZ or cyclin E-T1 infected cells
# Text: LMW cyclin E, but not full-length cyclin E, overexpressing MCF-7/Ac1 cells partially override the letrozole inhibition of AD-induced S-phase entry and AD-induced CDK2 protein levels. Since overexpression of LMW cyclin E deregulates the G1 to S transition, the inventors interrogated the role of full-length and LMW cyclin E in letrozole response. To this end, the inventors examined the sensitivity of cyclin E overexpressing MCF-7/Ac1 cells to the growth inhibitory effect of letrozole using adenoviruses to overexpress full-length and LMW cyclin E (FIGS. 24A-24D). MCF-7/Ac1 cells were cultured in charcoal stripped serum media (CSSM) for 4 days before infecting them with 4000 m.o.i. of either LacZ, full-length cyclin E (cyclin EL) or LMW cyclin E (cyclin E-T1 and cyclin E-T2). Twenty-four hours later, cells were left either untreated, treated with 25 nM AD alone, or treated with 25 nM AD plus 1 μM letrozole for an additional 3 days (FIGS. 24A-24B). Following the treatment, cells were enumerated or subjected to flow cytometry analysis.
# MCF-7/Ac1 cells were cultured in IMEM with 10% charcoal-stripped serum medium (CSSM) without phenol red and with 600 μg/ml of G418 for 4 days before plating. Triplicate wells of 6-well plates were then infected with the indicated adenoviruses (at 4000 m.o.i.) 24 hours before drug treatment. Cells were then left untreated (E2W, estrogen withdrawal) or treated with 25 nM AD (AD) or treated with 25 nM AD and 1 μM letrozole (AD+Let) and collected 3 days later for cell number. Cell growth is expressed as the percentage of the cells compared with the control cells (25 nM AD treated cells). […] MCF-7/Ac1 cells were treated as described in A, and collected for flow cytometry analysis. Histograms represent the S-phase fraction expressed as the percentage of the cells in S-phase compared with the control cells (25 nM AD treated cells). […] The same cell lysates as in A and B were subjected to western blot analysis (50 μg of protein) with cyclin E and CDK2 antibodies. The bar graph represents the densitometric values of the phosphorylated CDK2 bands. […] Left, MCF-7/Ac1 cells were cultured in IMEM with 10% charcoal-stripped serum medium (CSSM) without phenol red and with 600 μg/ml of G418 for 4 days before plating. Cells were then infected with the indicated adenoviruses (at 4000 m.o.i.) 24 hours before drug treatment. Cells were then treated with 25 nM AD and 1 μM letrozole and collected 3 days later for cell number. […] Columns, mean of two to three experiments, each in triplicates; bars, S.D.
# To directly address this question, MCF-7/Ac1 cells were cultured in charcoal stripped serum media (CSSM) for 4 days before adding medium with no virus or with 4000 m.o.i. of either LacZ, or LMW cyclin E (cyclin E-T1) adenoviruses. 24 hours later, cells were left untreated, treated with 25 nM AD alone, or treated with 25 nM AD plus 1 μM letrozole for 3 days (FIG. 24D). The AD-induced growth of MCF-7/Ac1 cells was inhibited by letrozole by 51% in uninfected cells and by 58% in LacZ infected cells while the growth of cyclin E-T1 infected cells was inhibited by only 20% (FIG. 24D, left).
smiles,measurement,setting,value
CC(C)(C#N)c1cc(Cn2cncn2)cc(C(C)(C)C#N)c1 [anastrozole],inhibition of AD-induced growth,"MCF-7/Ac1 cells [1]; any of the concentrations tested, with 25 nM AD",did not inhibit
same,effect on cell cycle distribution,"MCF-7/Ac1 cells [2]; 10 μM, with 25 nM AD",more subtle effect
C=C1C[C@@H]2[C@H](CC[C@]3(C)C(=O)CC[C@@H]23)[C@@]2(C)C=CC(=O)C=C12 [exemestane],inhibition at 1 µM,"MCF-7/Ac1 cells [1]; Homo sapiens, MCF7, 72 h, 1 μM, with 25 nM AD, read-out: inhibition of AD-induced growth",25%
same,inhibition at 10 µM,"MCF-7/Ac1 cells [1]; Homo sapiens, MCF7, 72 h, 10 μM, with 25 nM AD, read-out: inhibition of AD-induced growth",42%
same,cells in G0-G1,"MCF-7/Ac1 cells [2]; 10 μM, with 25 nM AD",49.2+/−0.7%
same,cells in S phase,"MCF-7/Ac1 cells [2]; 10 μM, with 25 nM AD",31.7+/−2.5%
"C[C@]12CCC(=O)C=C1CC[C@@H]1[C@@H]2CC[C@]2(C)C(=O)CC[C@@H]12 [AD, androstenedione]",increase in cell number compared to control cells (CSSM),MCF-7/Ac1 cells [1]; 25 nM AD,3.9+/−1.3 fold
same,fraction of cells in S phase,MCF-7/Ac1 cells [2]; 25 nM AD alone,40.3+/−1.9%
same,increase of fraction of cells in S phase compared to vehicle treated cells,MCF-7/Ac1 cells [2]; 25 nM AD alone,7.3 fold
same,cells in G0-G1,MCF-7/Ac1 cells [2]; 25 nM AD alone (baseline of exemestane comparison),35.1+/−0.8%
same,increase in cyclin E-associated kinase activity compared to vehicle treated cells,[3],1.6 fold
same,cyclin E protein levels,MCF-7/Ac1 cells [4],not affected
same,increase in CDK2 protein levels compared to vehicle treated cells,MCF-7/Ac1 cells [4]; 3 days,2.3 fold
same,increase in phospho-CDK2,MCF-7/Ac1 cells [4]; phospho-specific CDK2 antibody,3.5 fold
same,increase in p21 binding to CDK2,[5],1.5 fold
same,p21 binding to cyclin E,[5],did not affect
same,increase in total CDK2 protein levels,[6],1.8 fold
same,increase in AD-induced proliferation,MCF-7/Ac1 cells [7]; LMW cyclin E overexpressing cells,2.3 fold and 2.8 fold
same,increase in AD-induced proliferation,MCF-7/Ac1 cells [7]; LacZ infected cells,3.5 fold
same,increase in AD-induced proliferation,MCF-7/Ac1 cells [7]; uninfected cells,4 fold
CC[C@H](CO)Nc1nc(NCc2ccccc2)c2ncn(C(C)C)c2n1 [roscovitine],cell viability,BT474 cells,dose-dependent reduction in cell viability
same,cell viability,SKBr3 cells,dose-dependent reduction in cell viability
same,inhibition of AD-induced increase in cell number,MCF-7/Ac1 cells [8],completely inhibited
